Reference: patent publication US6600091B1, “Enzymes responsible for the metabolism of zeatin” (The State of Oregon acting by and through the State Board …, priority 1998, dated 2003)

Key:
[1] = target: T1, Recombinant Zeatin O-glucosyltransferase (Phaseolus lunatus, UniProt Q9ZSK5); experiment: Cytokinin conversion assay with recombinant zeatin O-glucosyltransferase (14C-cytokinin + glycosyl donor, products separated by HPLC); type: biochemical, Phaseolous lunatus
T1 construct: the polypeptide encoded by the ORF plus the 5′ untranslated region and the α-peptide from the cloning vector; alpha-peptide encoded by the cloning vector (33 amino acids, pZL1/ZipLox); made in house; host or cells: E. coli BL21(DE3) pLysS
T1 sequence (Q9ZSK5 1-459): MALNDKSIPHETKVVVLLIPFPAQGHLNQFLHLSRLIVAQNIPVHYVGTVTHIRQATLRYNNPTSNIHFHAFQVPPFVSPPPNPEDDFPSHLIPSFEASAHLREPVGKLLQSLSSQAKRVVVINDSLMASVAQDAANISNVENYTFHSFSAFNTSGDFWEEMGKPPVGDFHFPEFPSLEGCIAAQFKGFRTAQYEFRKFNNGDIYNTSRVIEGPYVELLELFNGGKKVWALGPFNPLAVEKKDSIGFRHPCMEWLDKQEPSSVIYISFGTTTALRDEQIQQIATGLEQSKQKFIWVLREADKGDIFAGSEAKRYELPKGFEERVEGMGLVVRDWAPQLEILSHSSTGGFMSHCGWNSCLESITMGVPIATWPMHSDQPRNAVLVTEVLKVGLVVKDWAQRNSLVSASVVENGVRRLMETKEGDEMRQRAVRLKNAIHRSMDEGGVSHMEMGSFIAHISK
Description: Isolation of recombinant zeatin O-glucosyltransferase proteins. To obtain recombinant proteins, purified plasmids were transformed into Epicurian Coli BL21(DE3) pLysS Competent cells (Stratagene, LaJolla, Calif.) following the recommended protocol. Colonies were selected on AMP-LB plates. An individual colony was grown overnight in SOC-AMP media and 0.5 ml of the culture was used to inoculate 50 mls of SOC-AMP media. […] After 4 hours cells were collected and frozen at −80° C. overnight. Cells were lysed the next day by thawing and resuspending in 0.5 ml of 0.2 M Tris pH 7.5 containing 1 mg/ml of lysozyme. DNAase (1 μg/10 μl sample) was added after a 10-min. cycle of freeze-thaw at −80° C. Soluble proteins were collected after centrifugation. Recombinant proteins were further purified on a DEAE anion exchange column using the Bio-Rad Biologic liquid chromatography system.
(§1) Assay for cytokinin conversion activity and analysis of reaction products. […] Briefly, ^14C-labeled cytokinins (specific activity of 24 mCi/mmol), glycosyl donor (3 mM of UDPG or UDPX), MgCl2 (0.05M) and ATP (0.5 mM) in 1 mM Tris, pH 8.0 were incubated with a specified amount of the recombinant protein at 27° C. […] The supernatant was concentrated to 100 μl in vacuo (Speed Vac Concentrator, Savant) and analyzed by HPLC using a reversed phase C18column.
(§2) The aqueous buffer consisted of 0.2M acetic acid adjusted to pH 3.5 with TEA. Samples were eluted with a linear gradient of methanol (5-50% over 90 minutes) in TEA buffer. The flow rate was 1 mL/min. and 0.5 mL fractions were collected. […] Radioactivity in these fractions was determined in Ready-Gel scintillation fluid (Beckman) with a Beckman LS 7000 scintillation counter.

[2] = target: T2, Recombinant Protein Encoded by the ORF of Zeatin O-xylosyltranferase (Phaseolus vulgaris, UniProt P56725); experiment: Cytokinin conversion assay with recombinant protein encoded by the ORF of zeatin O-xylosyltransferase (radio-labeled cytokinin + glycosyl donor, HPLC); type: biochemical, Phaseolous vulgaris; conditions: for Product (%) / Product CPM / Substrate Left (%) / Substrate Left CPM: 125 μl protein from culture supernatant, 4 hrs
T2 construct: the ORF of the gene was excised from the pGem-T vector (Promega) using the restriction enzymes Not1 and Sal1; made in house; host or cells: E. coli BL21(DE3) pLysS
T2 sequence (P56725 1-454): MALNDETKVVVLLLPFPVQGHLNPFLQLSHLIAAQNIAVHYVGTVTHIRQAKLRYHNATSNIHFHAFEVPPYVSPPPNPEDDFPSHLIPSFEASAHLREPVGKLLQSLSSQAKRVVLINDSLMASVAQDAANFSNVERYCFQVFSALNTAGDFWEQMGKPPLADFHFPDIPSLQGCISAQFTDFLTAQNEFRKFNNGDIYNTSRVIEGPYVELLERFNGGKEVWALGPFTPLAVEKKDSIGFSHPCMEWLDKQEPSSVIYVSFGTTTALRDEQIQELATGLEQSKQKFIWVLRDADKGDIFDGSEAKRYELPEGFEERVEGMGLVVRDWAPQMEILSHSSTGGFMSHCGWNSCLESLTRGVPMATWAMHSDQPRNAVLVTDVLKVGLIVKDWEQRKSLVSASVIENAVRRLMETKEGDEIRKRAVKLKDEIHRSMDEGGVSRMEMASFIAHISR
Source text: Isolation of recombinant zeatin O-xylosyltransferase proteins. Zeatin O-xylosyltransferase protein was purified using the same techniques as described above. Briefly, the coding sequences were ligated into an IPTG inducible plasmid which was transformed into Epicurian Coli BL21(DE3) pLysS Competent cells (Stratagene, LaJolla, Calif.). IPTG was then used to induce protein. Cells were subsequently lysed and the protein was separated out through the use of ion exchange chromatography.
as §1, §2
Isolation and authentication of zeatin O-xylosyltransferase cDNA clones. To assess the enzyme activity of the protein encoded by zeatin O-xylosyltransferase, the ORF of the gene was excised from the pGem-T vector (Promega) using the restriction enzymes Not1 and Sal1. The resulting fragment was then ligated into the Not1/Sal1 site of the pZipLox plasmid.

[3] = glycosyl donor UDPG, B: DEAE-purified proteins (4 μg), approx. 0.5 nmole 14C-cytokinin
[4] = glycosyl donor UDPG, A: 200 μl supernatant from lysed cells, approx. 1 nmole 14C-labeled zeatin, 2 hr
[5] = glycosyl donor UDPX, A: 200 μl supernatant from lysed cells, approx. 1 nmole 14C-labeled zeatin, 2 hr

| SMILES | Product (%) [1, 3] [%] | Product CPM [1, 3] [CPM] | Substrate Left (%) [1, 3] [%] | Substrate Left CPM [1, 3] [CPM] | Product (%) ([2]; glycosyl donor UDPX) | Product CPM ([2]; glycosyl donor UDPX) [CPM] | Substrate Left (%) ([2]; glycosyl donor UDPX) | Substrate Left CPM ([2]; glycosyl donor UDPX) [CPM] | further results |
| --- | --- | --- | --- | --- | --- | --- | --- | --- | --- |
| CC(CO)CCNc1ncnc2nc[nH]c12 (stereo not drawn) [DHZ, dihydrozeatin] | 1 | 329 | 99 | 24178 | 78 | 33237 | 22 | 9244 | Formation of O-glucosyldihydrozeatin (in words) ([1]; DEAE-column purified recombinant protein): trace |
| C/C(=C\CNc1ncnc2c1ncn2[C@@H]1O[C@H](CO)[C@@H](O)[C@H]1O)CO [RZ, ribosylzeatin] | – | – | – | – | – | – | 100 | 39238 | – |
| C/C(=C\CNc1ncnc2[nH]cnc12)CO [Z, trans-zeatin] | 14 | 3731 | 86 | 23115 | 82 | 35838 | 18 | 7768 | Product (%) [1, 4]: 100%; Product CPM [1, 4]: 39715 CPM; Substrate Left (%) [1, 4]: 0 (0%); Substrate Left CPM [1, 4]: 0 (0%) CPM; Conversion to O-glucosylzeatin (in words) ([1]; glycosyl donor UDPG, supernatant with recombinant protein, listed as 14C-zeatin): efficiently converted; Product (%) [1, 5]: 18%; Product CPM [1, 5]: 4956 CPM; Substrate Left (%) [1, 5]: 82%; Substrate Left CPM [1, 5]: 23078 CPM; Conversion of zeatin (in words) ([2]; UDPG as the sugar donor): no detectable conversion; Substrate Left (%) ([2]; glycosyl donor UDPG): 100%; Substrate Left CPM ([2]; glycosyl donor UDPG): 41679 CPM |
| C/C(=C/CNc1ncnc2nc[nH]c12)CO [cis-Z, Cis-zeatin] | – | – | – | – | – | – | 100 | 29460 | – |
